The text below walks through data of patent US6465641B1, “One pot synthesis of 5′-hydroxy phosphorylated nucleoside derivatives, and compounds formed thereby” (Parker Hughes Institute, priority 1999, dated 2002).

In one experiment the test system is sperm. The settings on record: read-out: EC50 value in sperm motility assays.
The test system of a further experiment is HIV. Conditions: read-out: IC50 value in HIV replication assays.

One may read the EC50 as the midpoint of the concentration-response curve. As usually defined, the IC50 is the concentration at which inhibition is half-maximal. In the case of “5-bromo-6-methoxy-5,6-dihydro-AZT-5′-(p-bromophenyl methoxyalaninyl phosphate)”, the EC50 with sperm is 2.8 µM. The IC50 in the experiment with HIV is 0.005 µM.
